For data set [1], the target named is T1, MMP-12 (Homo sapiens, UniProt P39900).
T1 construct: purchased Enzo Life Science, Farmingdale, NY
The experiment in a line: fluorimetric MMP inhibitor profiling, MMP-12. The format is biochemical. The note with it: 30 minutes preincubation, fluorogenic substrate. The method, then: (§1) After administration of fluorogenic substrate, a velocity of fluorescent increase was measured using excitation/emission = 320/405 nm.

Details of data set [2]: method as in PMID 11060801. Particulars: cited from earlier work.
Another data set deals with MMPs. Description: fluorimetric MMP inhibitor profiling, span over all MMPs. The format is biochemical. Particulars: MMP-1, -2, -3, -7, -8, -9, -10, -12, -13, -14; read-out: IC50 against each MMP enzymatic activity (span over the MMPs). The method, then: as §1
Data set [3] concerns pancreatic cancer cell lines. The experiment in a line: matrigel invasion assay. The format is cell-based, human. The method, then: Cell invasion was assayed in BD BioCoat Matrigel invasion chambers (BD Biosciences; 24 wells, 8 µm pore size) as described previously. Briefly, cells were incubated with different concentrations of cysteamine (0–5 mM) for 24 hours. Non-invaded cells were removed from the upper surface of the membrane with a cotton swab, and cells on the lower surface of the membrane were fixed and stained with H&E. Three random fields per chamber were counted. Data were shown as mean ± S.D. of triplicate determinations.

Data set [4] deals with pancreatic cancer cell lines. The experiment in a line: cell migration (wound healing) assay. The format is cell-based, human. As for the experimental part: Cell migration assay is a classical wound healing assay. For this assay, cells were cultured in 10 cm petri dishes until they were completely confluent. Cell monolayers were scraped with a sterile yellow micropipette tip and washed with PBS three times; the cells were then cultured in medium containing 0–5 mM of cysteamine for 24 hours. Five random fields were selected and pictures were taken using an inverted microscope. The average area (mm^2) of the gap between the cell layers was calculated using IPLab imaging software (BD Biosciences-Bioimaging, Rockville, MD).

In data set [5] the test system is HS766T. The experiment in a line: cell viability assay (trypan blue count), HS766T. The class given is cell-based, human. The note with it: 24 and 48 hour treatment, viable cell count. As for the experimental part:
(§2) Cell viability of pancreatic cancer cell lines was measured by counting viable cell numbers. Briefly, 3×10^5 cells were seeded per well in a 6-well plate with 2.0 milliliter complete medium and incubated overnight for plating. The cells were treated with different concentrations of cysteamine for 24–48 hours. After incubation, cells were detached with trypsin, washed and stained with 0.4% trypan blue. Cell number was manually counted using a hemocytometer and presented as number of viable cells per milliliter.

Data set [6] concerns MIA-PaCa2. The experiment in a line: cell viability assay (trypan blue count), MIA-PaCa2. The format is cell-based, human. As for the experimental part:
as §2

For data set [7], the system named is total MMPs activity in pancreatic cancer cell lines. The experiment in a line: total MMPs activity in lysates of treated cells (fluorogenic substrate). The note with it: two representative pancreatic cancer cell lines, 0–5 mM, 24 hours. The format is cell-based, human. As for the experimental part:
(§3) MMPs activity was measured by Mca-KPLGL-Dpa-AR-NH2 Fluorogenic Peptide Substrate (R&D systems, Emeryville, CA). Total cell protein from each pancreatic cancer cell line was collected using lysis buffer (containing 50 mM Tris-HCl, 10 mM CaCl2, 0.05% Brij35 and 0.25% Triton-X) without an MMP inhibitor. Substrate and 10 µg of total cell protein in the buffer were mixed in a black-wall 96-well plate. After 1 hour incubation, fluorescence units were determined using excitation/emission = 320/405 nm.

Data set [8] deals with MMP-9. The experiment in a line: MMP-9 protein level in treated cells (ELISA). The format is cell-based, human. The note with it: 5 mM (highest concentration), 24 hours, both cell lines. The method, then:
(§4) The MMP-9 protein level was determined using Human total MMP-9 DuoSet kit (R&D systems, Emeryville, CA) following the manufacturer's instruction. Ten microgram of total protein was aliquoted in each well and the MMP-9 concentration was determined by the colorimetric method.
(ELISA stands for enzyme-linked immunosorbent assay.)

The subject of data set [9] is MMP-9. Description: MMP-9 mRNA in treated cells (qRT-PCR). The class given is cell-based, human. Particulars: 5 mM (highest concentration), 24 hours, both cell lines. As for the experimental part:
(§5) Quantitative reverse transcription-PCR (qRT-PCR) was performed as described previously using QuantiTect SYBR Green PCR Kits (QIAGEN, Valencia, CA). Gene specific primers for human MMP-9, MMP-12, MMP-14 and β-actin were either purchased from QIAGEN or synthesized at the CBER core facility. Gene expression was normalized to β-actin before the fold change in gene expression was determined.
In general terms: Real-time PCR tracks product formation cycle by cycle.

Data set [10] deals with MMP-12. Description: MMP-12 mRNA in treated cells (qRT-PCR). The format is cell-based, human. The note with it: 24 hours, highest concentration. As for the experimental part:
as §5

A further data set concerns MMP-14. Description: MMP-14 mRNA in treated cells (qRT-PCR). The format is cell-based, human. The note with it: 24 hours, highest concentration. The method, then: as §5
For data set [11], the system named is MMP-9. Description: gelatin gel zymography of treated cells. The note with it: cell lysates after 24 hours. The class given is cell-based, human. The method, then: (§6) Gelatin gel zymography was performed on cell lysates from HS7666 and MIA-PaCa2 pancreatic cancer cell line with or without culture with different concentration of cysteamine essentially as described by D'Angelo et al. Briefly, 50 µg of total protein was electrophoresed on 10% SDS-PAGE containing 0.1% gelatin as substrate. After washing with 1% Triton X-100 in 50 mM Tris/HCl, pH 7.5 for 1 hr to remove SDS, the gels were incubated overnight at 37 °C in 50 mM Tris/HCl, pH 7.5, containing 150 mM NaCl, 10 mM CaCl2 and 0.1% Triton X-100, prior to staining with simply blue safe stain. The gels were washed with deionized water at room temperature. […] Relevant band intensities were quantified by scanning densitometric analysis and normalized to cell number.

In data set [12] the test system is HS766T. The experiment in a line: orthotopic pancreatic cancer model, HS766T. The class given is in vivo, nude nu/nu mice. The method, then: (§7) Female nude nu/nu mice between ages 5 and 6 weeks were maintained in a barrier facility in HEPA-filtered rack. All animal studies were conducted under approved protocol #2000–06 by the CBER Institutional Animal Care and Use Committee in accordance with the principles and procedures outlined in the NIH Guideline for the Care and Use of Laboratory Animals. For orthotopic tumor cell injection, the pancreas was carefully exposed, and 2.0×10^6 of MIA-PaCa2 and HS766T cells were injected into the organ. The pancreas was then returned to the peritoneal cavity, and the abdominal wall and skin were closed with skin clips,[30]. From day 4 after tumor implantation, increasing doses of cysteamine (0, 25, 100, or 250 mg/kg/day) were subcutaneously injected twice a day until the end of the experiment. At day 30, mice were sacrificed and the number of metastatic nodules visible by naked eye and whose sizes were >5 mm in diameter counted. The total weight of primary tumor and metastatic nodules were also measured. Pictures were taken immediately after sacrificing the animals. Additionally, mouse survival time was monitored in an independent experiment. Mice were sacrificed when they had severe ascites or cachexia. Mice in both tumor models were weighed at day 10 and day 25 after Cysteamine treatment.

Data set [13] concerns MIA-PaCa2. Description: orthotopic pancreatic cancer model, MIA-PaCa2. The class given is in vivo, nude nu/nu mice. The method, then:
as §7

Data set [14] can be described thus: safety in tumor-bearing mice (body weight, serum enzymes, histology). The class given is in vivo, nude nu/nu mice. As for the experimental part: as §7
Mouse blood was collected from the tail vein. Serum levels of alanine aminotransferase (ALT), creatine kinase (CK), aldolase and creatinine (Cr) were measured using different kits obtained from Pointe Scientific, Inc. (Canton, MI) and Caldon Biotech, Inc. (Vista, Ca), following the manufacturer's instruction.

The test system of data set [15] is MMPs activity in primary orthotopic tumors (HS766T and MIA-PaCa2). Description: MMP activity in primary orthotopic tumors (fluorogenic substrate). The note with it: 100 and 250 mg/Kg, day 30. The format is in vivo, nude nu/nu mice. As for the experimental part:
as §3
(§8) When mice were sacrificed at day 30, primary tumors were collected. For extraction of total protein, the tumor was soaked with lysis buffer and homogenized using TissueRuptor (QIAGEN); the supernatant was collected. Total RNA was extracted using FastRNA pro green kit (MP Biomedicals, Solon, OH) following the manufacturer's instructions. MMP activity, gelatin hydrolyzing MMP activity and the mRNA and protein levels of MMP-9 were determined as mentioned above.

Data set [16] deals with MMP-9. The experiment in a line: MMP-9 mRNA in primary tumors (qRT-PCR). The class given is in vivo, nude nu/nu mice. The note with it: tumors harvested at day 30. The method, then:
as §5, §8

For data set [17], the system named is MMP-9. The experiment in a line: MMP-9 protein in primary tumors (ELISA). The note with it: tumors harvested at day 30. The class given is in vivo, nude nu/nu mice. The method, then: as §4, §8
Data set [18] relates to MMP-9. The experiment in a line: zymography of primary tumors. The class given is in vivo, nude nu/nu mice. Particulars: tumors harvested at day 30. As for the experimental part: as §6, §8
The conditions of data set [19]: oral, every 6 hours at 60 to 90 mg/kg of body weight per day; cited from earlier work.
For data set [20] the following is noted: cited from earlier work.

T1 sequence (P39900 106-470): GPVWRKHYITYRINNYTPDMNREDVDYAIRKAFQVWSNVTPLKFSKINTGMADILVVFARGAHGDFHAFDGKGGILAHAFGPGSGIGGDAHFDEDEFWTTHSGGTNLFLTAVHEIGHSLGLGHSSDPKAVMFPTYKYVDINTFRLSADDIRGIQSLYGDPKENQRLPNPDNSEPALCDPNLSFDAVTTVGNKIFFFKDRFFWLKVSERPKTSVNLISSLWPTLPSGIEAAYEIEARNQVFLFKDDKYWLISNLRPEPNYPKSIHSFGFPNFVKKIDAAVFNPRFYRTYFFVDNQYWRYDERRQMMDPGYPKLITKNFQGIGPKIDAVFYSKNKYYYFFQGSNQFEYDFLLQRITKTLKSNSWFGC

A word on the IC50: it is the concentration that inhibits the measured activity by half. `CNC(=O)[C@H](Cc1ccccc1)NC(=O)[C@H](CC(C)C)[C@H](CSc1cccs1)C(=O)NO` [Batimastat]: the IC50 on MMP-12 [1] is 12 nM. Moreover, in data set [2], the oral bioavailability entry is “poor oral bioavailability”.
With `NCCS` [Cysteamine], the IC50 with MMPs lay in the range of 38 to 460 µM. Besides, the “lowest concentration that significantly inhibited cell invasion” value in data set [3] (all 10 pancreatic cancer cell lines, 24 hours) is recorded as 0.05 mM. The “concentration that sufficiently inhibited cancer cell invasion in vitro” value in data set [3] (in vitro) was found to be 50 µM. Besides, the “concentration at which cell migration was significantly inhibited” value in data set [4] (all 10 cell lines, 24 hours) was at least 0.05 mM. For the same compound, the “concentration that sufficiently inhibited cancer cell migration in vitro” value in [4] (in vitro) is given as 50 µM. In addition, the “concentration showing cell toxicity” value with HS766T [5] was over 12.5 mM; in the data set with MIA-PaCa2 [6] (MIA-PaCa2, 24 and 48 hour treatment, viable cell count), over 12.5 mM. In addition, the “concentrations that caused no toxicity to cells (abstract)” value in the data set on MIA-PaCa2 [6] (cells not named in the abstract, viability tested in MIA-PaCa2) is under 25 mM. Moreover, the “total MMP activity in treated cells” value in [7] is on record as “inhibited MMP activity”. Besides, the MMP-9 protein level result with MMP-9 [8] is recorded as “modestly increased”. Also, the “MMP-9 mRNA level” value in the data set on MMP-9 [9] is given as “modestly increased”. Moreover, the “MMP-12 mRNA” value with MMP-12 [10] is listed as “modest increase”. Besides, in the data set on MMP-14, the “MMP-14 mRNA” value was “modest increase”. In addition, the “zymographic gelatin hydrolyzing activity, pro and active MMP-9” value with MMP-9 [11] is reported as “decreased significantly in a dose dependent manner”. The “HS766T metastasis number, average” value in the data set with HS766T [12] (250mg/kg s.c., day 30, lesions ≥ 5 mm, average of 5 mice) was 3.6. For the same compound, the “decrease of the number of metastases of HS766T tumor” value with HS766T [12] (250 mg/kg/day s.c., day 30, versus control) is about 90%. Also, the development of ascites result is given as “no mice developed ascites” in the data set with HS766T [12] (HS766T model, 100 and 250 mg/kg/day); “no mice developed ascites” with MIA-PaCa2 [13] (MIA-PaCa2 model, 100 and 250 mg/kg/day). For the same compound, the “dose at which mouse survival time was significantly prolonged” value is at least 100 mg/kg/day in the data set on HS766T [12] (HS766T model, Kaplan-Meier, s.c. twice a day from day 4) and at least 100 mg/kg/day in the data set on MIA-PaCa2 [13] (MIA-PaCa2 model, Kaplan-Meier, s.c. twice a day from day 4). For the same compound, the “size and weight of the primary tumors, control versus treated groups” value is reported as “did not show any difference” in the data set with HS766T [12] (HS766T model, day 30) and “did not show any difference” in the data set with MIA-PaCa2 [13] (MIA-PaCa2 model, day 30). Further, the “decrease of the total weight of metastatic nodules of MIA-PaCa2 tumor” value in the data set with MIA-PaCa2 [13] (highest dose (250 mg/kg/day) s.c., day 30, versus control) is on record as about 90%. Further, in [14] (liver, kidney, brain, heart, lung, day 30), the “organ toxicity by histological examination” value is reported as “no organ toxicity was detected”. Besides, in [14] (mice, s.c.), the “dose tolerated without visible, biochemical or histological evidence of toxicity” value is “up to 250 mg/kg/day”. Besides, in data set [14] (mouse, in vivo), the “serum alanine aminotransferase (ALT)” value is on record as “no significant differences”. In addition, in [14] (mouse, in vivo), the serum aldolase entry is “no significant differences”. For the same compound, in data set [14] (mouse, in vivo), the “serum creatine kinase (CK)” value is given as “no significant differences”. Also, in [14] (mouse, in vivo), the “serum creatinine (Cr)” value was “no significant differences”. The “MMPs activity in primary orthotopic tumors” value in [15] is on record as “decreased MMPs activity”. For the same compound, the “MMP-9 mRNA level in primary tumors” value with MMP-9 [16] was “did not affect”. Further, the “MMP-9 protein level in primary tumors” value in the data set with MMP-9 [17] is given as “did not affect”. The “zymography for MMP-9, gelatinase activity in tumors” value in the data set on MMP-9 [18] is “dose dependent decrease in gelatinase activity”. In addition, the cysteamine plasma level in [19] is reported as about 50 µM. Also, the “adverse effects in subjects” value in data set [20] was “only gastrointestinal symptoms”.
For the compound `CNC(=O)[C@@H](NC(=O)[C@H](CC(C)C)[C@H](O)C(=O)NO)C(C)(C)C` [marimastat], the clinical toxicity result in [20] (higher dosage, patients with breast cancer metastasis) is recorded as “high musculoskeletal toxicities”.

Values taken from article PMC3332081, “Cysteamine Suppresses Invasion, Metastasis and Prolongs Survival by Inhibiting Matrix Metalloproteinases in a Mouse Model of Human Pancreatic Cancer” (PLoS ONE, 2012).
